This is an account of results in paper doi:10.1101/2022.06.11.495772v2 (biorxiv, 2022).

The target in assay [1] is T1, EcMetAP (Escherichia coli, UniProt P0AE18).
T1 sequence (P0AE18 2-264): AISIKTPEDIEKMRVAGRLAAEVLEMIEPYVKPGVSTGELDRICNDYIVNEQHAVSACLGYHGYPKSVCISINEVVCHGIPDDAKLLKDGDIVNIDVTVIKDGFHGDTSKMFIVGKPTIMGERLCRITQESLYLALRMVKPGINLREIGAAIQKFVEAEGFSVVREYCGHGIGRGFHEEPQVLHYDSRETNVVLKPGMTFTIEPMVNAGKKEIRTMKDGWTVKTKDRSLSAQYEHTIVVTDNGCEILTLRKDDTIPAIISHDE
In words: coupled fluorogenic Met-Gly-Pro-AMC / DPPIV assay. Type of assay: biochemical.

The target in assay [2] is T1, EcMetAP. In words: biochemical.
In the next assay the target is HsMetAP1 (Homo sapiens, UniProt P53582). In words: biochemical.
The next assay addresses HsMetAP2 (Homo sapiens, UniProt P50579). In words: biochemical.

Structures are written as SMILES. Square brackets hold non-standard residues; d marks the D form. Peptide text beside a SMILES is read from it. NMeY = CN[C@@H](Cc1ccc(O)cc1)C(=O)O; NMeT = CN[C@H](C(=O)O)[C@@H](C)O; NMeL = CN[C@@H](CC(C)C)C(=O)O Bounds are passed on as bounds.

Sequence of HsMetAP2 (P50579 2-478): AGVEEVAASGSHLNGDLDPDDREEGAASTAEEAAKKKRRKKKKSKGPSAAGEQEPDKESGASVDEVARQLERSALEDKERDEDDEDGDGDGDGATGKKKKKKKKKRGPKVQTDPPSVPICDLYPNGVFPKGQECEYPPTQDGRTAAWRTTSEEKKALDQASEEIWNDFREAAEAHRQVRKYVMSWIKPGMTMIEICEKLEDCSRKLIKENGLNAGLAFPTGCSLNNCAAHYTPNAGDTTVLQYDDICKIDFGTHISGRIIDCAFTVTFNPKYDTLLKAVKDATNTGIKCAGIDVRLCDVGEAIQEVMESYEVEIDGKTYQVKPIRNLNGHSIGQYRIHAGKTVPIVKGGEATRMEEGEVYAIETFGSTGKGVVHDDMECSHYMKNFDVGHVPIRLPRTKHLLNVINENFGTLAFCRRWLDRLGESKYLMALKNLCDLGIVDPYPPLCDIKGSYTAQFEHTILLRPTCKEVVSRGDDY

The IC50 is the midpoint of a concentration-inhibition curve. Higher therefore signals lower potency. `CNC(Cc1ccc(O)cc1)C(=O)N(C)C1C(=O)N(C)C(CC(C)C)C(=O)OC(C)C(N(C)C(=O)C(Cc2ccc(O)cc2)N(C)C)C(=O)N(C)C(CC(C)C)C(=O)OC1C` (stereo not shown) [metapeptin B]: the IC50 is approximately 0.5 µM at EcMetAP [1], 0.47 ± 0.29 µM against EcMetAP [2], 49.7 ± 3.98 µM against HsMetAP1 and more than 2000 µM against HsMetAP2.
`CO[C@@H]1[C@H](OC(=O)NC(=O)CCl)CC[C@]2(CO2)[C@H]1[C@@]1(C)O[C@@H]1CC=C(C)C` [TNP-470]: the values for the IC50 against EcMetAP [2], against HsMetAP1 and on HsMetAP2 were more than 2000 µM, more than 2000 µM and 0.69 ± 0.05 µM, respectively.
Regarding `CC(C)CC1C(=O)OC(C)C(N(C)C(=O)C(Cc2ccc(O)cc2)N(C)C)C(=O)N(C)C(CC(C)C)C(=O)OC(C)C(N(C)C(=O)C(Cc2ccc(O)cc2)N(C)C)C(=O)N1C` (stereo not shown) [metapeptin A], the IC50 at EcMetAP [2], against HsMetAP1 and at HsMetAP2 was more than 2000 µM each time.
As for `CCCCCCCCCCCCCC(=O)O[C@H]1CC[C@H](NC(=O)[C@H](OC)[C@H](O)[C@@H](O)[C@H](O)/C=C/C(C)C)C(=O)N(C)C1` [bengamide B], the IC50 against EcMetAP [2] was more than 2000 µM.
`CN[C@@H](Cc1ccc(O)cc1)C(=O)N(C)[C@H](C(=O)N(C)[C@@H](CC(C)C)C(=O)OC)[C@@H](C)OC` [NMe-Monomer] (H-[NMeY]-[NMeT](Me)-[NMeL]-OMe): the IC50 at HsMetAP1 and at HsMetAP2 was more than 2000 µM in each case.
